{"source": "paper PMC5471438", "about": "“Linaclotide activates guanylate cyclase‐C/cGMP/protein kinase‐II‐dependent trafficking of CFTR in the intestine” (Physiological Reports, 2017)", "key": {"GC‐C": {"test_system": "GC‐C", "settings": "ref Bryant et al. 2010; Busby et al. 2010; cited from earlier work", "source_text": "The synthetic GC‐C agonist peptide, linaclotide, is an FDA‐approved drug for adult patients with Irritable Bowel Syndrome with Constipation (IBS‐C) and Chronic Idiopathic Constipation (CIC) (Bryant et al. 2010; Busby et al. 2010). IBS‐C is a highly prevalent, chronic functional gastrointestinal disorder with a global prevalence estimated to range from 5% to 20% (Mayer 2008; Quigley et al. 2012)."}, "CFTR": {"test_system": "CFTR", "assay": "Confocal immunofluorescence of CFTR in rat intestine", "type": "in vivo", "settings": "linaclotide 5 μg, 30 min", "method": "All animal studies were approved by the Institutional Animal Care and Use Committee of Yale University School of Medicine. Briefly, male Sprague–Dawley rats (200–250 g, Charles River Laboratories) were fasted overnight with access to drinking water ad libitum. Anesthesia was performed with Inactin® (Thiobutabarbital sodium salt hydrate, 120 mg/kg/i.p.). The jejunal, ileal, and proximal colonic loops (5 cm length) were prepared using sutures. Loops were instilled either with normal saline (pH7.4, 37°C) (1 mL/loop) or linaclotide (5 μg/mL/loop) for 30 min. At the end of the study, animals were euthanized with Inactin (200 mg/kg/i.p.).\nAfter completion of treatment either with normal saline or linaclotide for 30 min, intestinal segments were immediately removed and briefly rinsed with ice‐cold PBS. Tissues were cut into ~2‐mm‐thick rings, fixed in 2% paraformaldehyde in PBS, pH 7.4 for 1 h at room temperature, rinsed with PBS and cryoprotected in 30% sucrose overnight. Multiple tissue samples were processed under identical conditions by the utilization of tissue arrays as previously described (Jakab et al. 2011). […] Immunolabeled sections were stored at 4°C and examined on Zeiss LSM 710 DUO laser scanning confocal microscope outfitted with a Mai‐Tai laser and electronics capable of spectrally separating fluorescence emission profiles. […]"}, "T84 cells": {"test_system": "T84 cells", "assay": "cGMP synthesis in T84 cells", "type": "cell-based, human"}}}
{"substance": "linaclotide", "values": [{"measurement": "fluid secretion", "setting": "GC‐C", "value": "increased fluid secretion"}, {"measurement": "intestinal transit", "setting": "GC‐C", "value": "accelerated intestinal transit"}, {"measurement": "CFTR localization in brush border (confocal)", "setting": "CFTR", "value": "accumulation of CFTR in the brush border"}, {"measurement": "EC80 for cGMP synthesis (approximate)", "setting": "T84 cells", "value": "~1000", "unit": "nM"}, {"measurement": "EC100 for cGMP synthesis (approximate)", "setting": "T84 cells", "value": "~3", "unit": "µmol/L"}, {"measurement": "EC50", "setting": "T84 cells; IBMX 1 mmol/L 10 min, linaclotide 0.001–10 μmol/L 30 min, 37°C, pH 7, cGMP in supernatants by LC/MS/MS, n = 4", "value": 772, "unit": "nM"}, {"measurement": "cGMP synthesis", "setting": "T84 cells; linaclotide 0.001–10 μmol/L, 30 min, IBMX 1 mmol/L", "value": "concentration dependently stimulated cGMP synthesis"}]}
